Columns and labels:
TLR2 [1] = target: TLR2 (Homo sapiens, UniProt O60603); test: TLR2 agonist screening assay, HEK-Blue TLR2 reporter cell line (NF-kB-driven SEAP, absorbance at 600 nm); assay type: cell-based; design: host or cells: HEK-293 (HEK-Blue TLR2 reporter cell line); details: HEK-Blue TLR2 reporter cells, agonist mode; average of all runs (Table 4)
In short: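 EC50 values come from 600 nm absorbance of SEAP-converted substrate after overnight agonist exposure. The reporter line was HEK-293 engineered with TLR2 and an NF-kB-SEAP construct, seeded at about 40,000 cells per well 16-24 h beforehand. Compounds were added at 1% final DMSO.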

TLR2 [2] = target: T1, TLR2 (Mus musculus, UniProt Q9QUN7); test: TLR2 functional assay, cytokine release from RAW 264.7 mouse macrophage cell line; assay type: cell-based; details: average of all runs
T1 construct: endogenous in cells; host or cells: RAW 264.7
T1 sequence (Q9QUN7 25-784): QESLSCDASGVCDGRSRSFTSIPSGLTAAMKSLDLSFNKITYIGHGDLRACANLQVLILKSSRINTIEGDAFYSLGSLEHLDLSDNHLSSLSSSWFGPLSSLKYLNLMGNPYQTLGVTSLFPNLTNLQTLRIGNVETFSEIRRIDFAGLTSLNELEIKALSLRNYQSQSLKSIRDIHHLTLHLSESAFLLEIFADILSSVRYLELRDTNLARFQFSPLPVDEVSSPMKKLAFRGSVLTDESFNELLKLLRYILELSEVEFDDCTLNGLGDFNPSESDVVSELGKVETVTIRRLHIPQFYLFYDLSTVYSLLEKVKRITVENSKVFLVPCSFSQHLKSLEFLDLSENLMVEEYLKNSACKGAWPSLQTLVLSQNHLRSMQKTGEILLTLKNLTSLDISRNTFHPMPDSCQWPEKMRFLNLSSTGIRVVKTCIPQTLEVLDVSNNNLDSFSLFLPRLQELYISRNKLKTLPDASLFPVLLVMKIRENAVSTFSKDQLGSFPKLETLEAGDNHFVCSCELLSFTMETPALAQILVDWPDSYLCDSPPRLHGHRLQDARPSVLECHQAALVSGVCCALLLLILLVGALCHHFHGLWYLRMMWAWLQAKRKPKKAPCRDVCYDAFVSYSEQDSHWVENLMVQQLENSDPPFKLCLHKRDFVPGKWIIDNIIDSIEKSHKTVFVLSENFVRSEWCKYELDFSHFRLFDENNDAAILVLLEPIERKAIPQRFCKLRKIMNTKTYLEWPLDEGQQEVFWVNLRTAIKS
Description: Cells of the immune system respond to TLR agonists in part by secreting cytokines. Functional assays for TLR2 agonists measure cytokine release from purified immune cells or immortalized cell lines derived from immune cells. Cytokine release is measured by standard ELISA approaches or multiplexed analysis using the Meso Scale Discovery (MSD) platform.
Purified primary human peripheral blood mononuclear cells or RAW 264.7 mouse macrophage cell line cells are plated at approximately 40,000 cells per well. Cells are treated with agonist compounds and assays 6-24 hours post-treatment for cytokines released into the cell culture media.
Following assay measurements utilizing either HEK-Blue detection or cytokine release, all data is analyzed with the GraphPad Prism8 statistical package to determine EC50, binding and activity metrics for the TLR2 modulators.
Numerous cell lines derived from various cell types can respond to TLR2 agonists with stereotyped cytokine and chemokine secretion. In particular, cell lines derived from macrophages respond robustly to TLR2 agonists by secreting a wide array of cytokines, including (but not limited to) TNF-alpha, IL-1, IL-10 and IL-12. The human monocytic cell line THP-1, the mouse macrophage line RAW-264.7, and the rat macrophage line NR8383 were used. For each assay, the respective cell lines were plated into 96-well plates overnight and then treated the following day with various TLR2-engaging compounds at varying concentrations. The next day, supernatants were collected and assayed by multiplex immunodetection for cytokines released (MSD detection kits for respective species).
Data provided in Table 5 is generated using protocols described in Example 45 and 46.

Chain of TLR2 (Homo sapiens, UniProt O60603) (O60603 21-784): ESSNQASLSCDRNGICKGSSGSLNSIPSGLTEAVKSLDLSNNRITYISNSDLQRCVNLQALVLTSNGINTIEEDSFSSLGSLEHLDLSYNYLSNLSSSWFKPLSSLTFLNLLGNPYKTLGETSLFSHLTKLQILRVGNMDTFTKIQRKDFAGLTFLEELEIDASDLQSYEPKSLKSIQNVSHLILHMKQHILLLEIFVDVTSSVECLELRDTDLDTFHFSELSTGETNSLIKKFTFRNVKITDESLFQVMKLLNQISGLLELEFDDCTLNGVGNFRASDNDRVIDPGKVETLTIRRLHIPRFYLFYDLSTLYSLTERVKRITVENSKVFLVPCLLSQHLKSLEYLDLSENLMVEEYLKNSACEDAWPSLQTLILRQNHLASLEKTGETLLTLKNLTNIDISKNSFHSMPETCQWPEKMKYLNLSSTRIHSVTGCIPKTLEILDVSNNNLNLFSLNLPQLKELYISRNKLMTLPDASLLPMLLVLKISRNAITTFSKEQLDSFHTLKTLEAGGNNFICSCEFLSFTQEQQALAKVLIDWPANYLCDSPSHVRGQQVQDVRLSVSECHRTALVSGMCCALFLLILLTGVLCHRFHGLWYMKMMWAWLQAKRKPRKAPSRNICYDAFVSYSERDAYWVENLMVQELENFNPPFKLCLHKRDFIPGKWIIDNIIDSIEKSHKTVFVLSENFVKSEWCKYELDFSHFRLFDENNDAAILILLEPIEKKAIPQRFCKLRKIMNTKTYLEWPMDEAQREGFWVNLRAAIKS

Row | Compound | EC50 (TLR2 [1]) [nM] | EC50 (TLR2 [2]) [nM]
1 | CCCCCCCCCC(=O)N[C@@H](CNC(=O)c1ccc(C(=O)N2C[C@@H](C(=O)N[C@H]3C[C@@H]3c3ccccc3)[C@H](C(=O)N[C@H]3C[C@@H]3c3ccccc3)C2)cc1)C(=O)NCCCCCC [Compound 175, (3S,4S)-1-(4-(((S)-2-decanamido-3-(hexylamino)-3-oxopropyl)carbamoyl)benzoyl)-N3,N4-bis ((1S,2R)-2-phenylcyclopropyl) pyrrolidine-3,4-dicarboxamide] | 0.1 to 50 | 51 to 350
2 | CCCCCCCCNC(=O)[C@H](CNC(=O)c1ccc(C(=O)N2C[C@@H](C(=O)N[C@H]3C[C@@H]3c3ccccc3)[C@H](C(=O)N[C@H]3C[C@@H]3c3ccccc3)C2)cc1)NC(=O)CCCCCCCC [Compound 197, (3S,4S)-1-(4-(((S)-2-nonanamido-3-(octylamino)-3-oxopropyl)carbamoyl)benzoyl)-N3,N4-bis((1S,2R)-2-phenylcyclopropyl)pyrrolidine-3,4-dicarboxamide] | 0.1 to 50 | 351 to 1000
3 | CCCCCCCCCC(=O)N[C@@H](Cn1cc(-c2ccc(C(=O)N3C[C@@H](C(=O)N[C@H]4C[C@@H]4c4ccccc4)[C@H](C(=O)N[C@H]4C[C@@H]4c4ccccc4)C3)cc2)nn1)C(=O)NCCCCCC [Compound 213, (3S,4S)-1-(4-(1-((S)-2-decanamido-3-(hexylamino)-3-oxopropyl)-1H-1,2,3-triazol-4-yl)benzoyl)-N3,N4-bis((1S,2R)-2-phenylcyclopropyl)pyrrolidine-3,4-dicarboxamide] | 0.1 to 50 | 51 to 350
4 | CCCCCCCCNC(=O)N[C@@H](CNC(=O)c1ccc(C(=O)N2C[C@@H](C(=O)N[C@H]3C[C@@H]3c3ccccc3)[C@H](C(=O)N[C@H]3C[C@@H]3c3ccccc3)C2)cc1)C(=O)NCCCCCC [Compound 211, (3S,4S)-1-(4-(((S)-3-(hexylamino)-2-(3-octylureido)-3-oxopropyl)carbamoyl)benzoyl)-N3,N4-bis((1S,2R)-2-phenylcyclopropyl)pyrrolidine-3,4-dicarboxamide] | 0.1 to 50 | > 1000
5 | CCCCCCNC(=O)[C@H](Cn1cc(-c2ccc(C(=O)N3C[C@@H](C(=O)N[C@H]4C[C@@H]4c4ccccc4)[C@H](C(=O)N[C@H]4C[C@@H]4c4ccccc4)C3)cc2)nn1)NC(=O)CCCCCC [Compound 185, (3S,4S)-1-(4-(1-((S)-2-heptanamido-3-(hexylamino)-3-oxopropyl)-1H-1,2,3-triazol-4-yl)benzoyl)-N3,N4-bis((1S,2R)-2-phenylcyclopropyl)pyrrolidine-3,4-dicarboxamide] | 0.1 to 50 | 0.1 to 50
6 | CCCCCCCCC(=O)N[C@@H](Cn1cc(-c2ccc(C(=O)N3C[C@@H](C(=O)N[C@H]4C[C@@H]4c4ccccc4)[C@H](C(=O)N[C@H]4C[C@@H]4c4ccccc4)C3)cc2)nn1)C(=O)NCCCCCC [Compound 212, (3S,4S)-1-(4-(1-((S)-3-(hexylamino)-2-nonanamido-3-oxopropyl)-1H-1,2,3-triazol-4-yl)benzoyl)-N3,N4-bis ((1S,2R)-2-phenylcyclopropyl) pyrrolidine-3,4-dicarboxamide] | 0.1 to 50 | 351 to 1000
7 | CCCCCCCCCCCCCCNC(=O)N[C@@H]1CCCN(C(=O)c2ccc(C(=O)N3C[C@@H](C(=O)N[C@H]4C[C@@H]4c4ccccc4)[C@H](C(=O)N[C@H]4C[C@@H]4c4ccccc4)C3)cc2)C1 [Compound 206, (3S,4S)—N3,N4-bis((1S,2R)-2-phenylcyclopropyl)-1-(4-((R)-3-(3-tetradecylureido)piperidine-1-carbonyl)benzoyl)pyrrolidine-3,4-dicarboxamide] | 0.1 to 50 | > 1000
8 | CCCCCCC(=O)N[C@@H](CNC(=O)c1ccc(C(=O)N2C[C@@H](C(=O)N[C@H]3C[C@@H]3c3ccccc3)[C@H](C(=O)N[C@H]3C[C@@H]3c3ccccc3)C2)cc1)C(=O)NCc1ccc(F)cc1 [Compound 128, (3S,4S)-1-(4-(((S)-3-((4-fluorobenzyl)amino)-2-heptanamido-3-oxopropyl)carbamoyl)benzoyl)-N3,N4-bis((1S,2R)-2-phenylcyclopropyl)pyrrolidine-3,4-dicarboxamide] | > 1000 | 
9 | CCCCCCCCCCCCCCNC(=O)[C@H]1CN(Cc2ccc(C(=O)N3C[C@@H](C(=O)N[C@H]4C[C@@H]4c4ccccc4)[C@H](C(=O)N[C@H]4C[C@@H]4c4ccccc4)C3)cc2)C(=O)CN1C [Compound 092, (3S,4S)-1-(4-(((R)-4-methyl-2-oxo-5-(tetradecylcarbamoyl)piperazin-1-yl)methyl)benzoyl)-N3,N4-bis((1S,2R)-2-phenylcyclopropyl)pyrrolidine-3,4-dicarboxamide] | 51 to 350 | 

Further lines, results first:

Row | EC50 (TLR2 [1]) [nM] | EC50 (TLR2 [2]) [nM] | Compound
10 | 0.1 to 50 | > 1000 | CCCCCCCCOC(=O)N[C@@H](CNC(=O)c1ccc(C(=O)N2C[C@@H](C(=O)N[C@H]3C[C@@H]3c3ccccc3)[C@H](C(=O)N[C@H]3C[C@@H]3c3ccccc3)C2)cc1)C(=O)NCCCCCC [Compound 228, octyl ((S)-3-(4-((3S,4S)-3,4-bis(((1S,2R)-2-phenylcyclopropyl)carbamoyl)pyrrolidine-1-carbonyl)benzamido)-1-(hexylamino)-1-oxopropan-2-yl)carbamate]
11 | 0.1 to 50 | 0.1 to 50 | CCCCCCCCNC(=O)N[C@@H](Cn1cc(-c2ccc(C(=O)N3C[C@@H](C(=O)N[C@H]4C[C@@H]4c4ccccc4)[C@H](C(=O)N[C@H]4C[C@@H]4c4ccccc4)C3)cc2)nn1)C(=O)NCCCCCC [Compound 221, (3S,4S)-1-(4-(1-((S)-3-(hexylamino)-2-(3-octylureido)-3-oxopropyl)-1H-1,2,3-triazol-4-yl)benzoyl)-N3,N4-bis((1S,2R)-2-phenylcyclopropyl)pyrrolidine-3,4-dicarboxamide]
12 | > 1000 | 351 to 1000 | O=C(N[C@@H](CNC(=O)c1ccc(C(=O)N2C[C@@H](C(=O)N[C@H]3C[C@@H]3c3ccccc3)[C@H](C(=O)N[C@H]3C[C@@H]3c3ccccc3)C2)cc1)C(=O)N[C@H]1C[C@@H]1c1ccccc1)N[C@H]1C[C@@H]1c1ccccc1 [Compound 223, (3S,4S)-1-(4-(((S)-3-oxo-3-(((1S,2R)-2-phenylcyclopropyl)amino)-2-(3-((1S,2R)-2-phenylcyclopropyl)ureido)propyl)carbamoyl)benzoyl)-N3,N4-bis((1S,2R)-2-phenylcyclopropyl)pyrrolidine-3,4-dicarboxamide]
13 | 0.1 to 50 | > 1000 | CCCCCCCOC(=O)N[C@@H](CNC(=O)c1ccc(C(=O)N2C[C@@H](C(=O)N[C@H]3C[C@@H]3c3ccccc3)[C@H](C(=O)N[C@H]3C[C@@H]3c3ccccc3)C2)cc1)C(=O)NCCCCCC [Compound 227, heptyl ((S)-3-(4-((3S,4S)-3,4-bis(((1S,2R)-2-phenylcyclopropyl)carbamoyl)pyrrolidine-1-carbonyl)benzamido)-1-(hexylamino)-1-oxopropan-2-yl)carbamate]
14 | > 1000 | > 1000 | CO[C@H]1CN(C(=O)c2ccc(C(=O)N3C[C@@H](C(=O)N[C@H]4C[C@@H]4c4ccccc4)[C@H](C(=O)N[C@H]4C[C@@H]4c4ccccc4)C3)cc2)C[C@@H]1NC(=O)N[C@H]1C[C@@H]1c1ccccc1 [Compound 224, (3S,4S)-1-(4-((3S,4S)-3-methoxy-4-(3-((1S,2R)-2-phenylcyclopropyl)ureido)pyrrolidine-1-carbonyl)benzoyl)-N3,N4-bis((1S,2R)-2-phenylcyclopropyl)pyrrolidine-3,4-dicarboxamide]
15 | 0.1 to 50 | > 1000 | CCCCCCCCCCCNC(=O)N[C@H]1CN(C(c2ccc(C(=O)N3C[C@@H](C(=O)N[C@H]4C[C@@H]4c4ccccc4)[C@H](C(=O)N[C@H]4C[C@@H]4c4ccccc4)C3)cc2)C(F)(F)F)C[C@@H]1OC (single isomer, unassigned) [Compound 230, (3S,4S)—N3,N4-bis((1S,2R)-2-phenylcyclopropyl)-1-(4-((R*)-2,2,2-trifluoro-1-((3S,4S)-3-methoxy-4-(3-undecylureido)pyrrolidin-1-yl)ethyl)benzoyl)pyrrolidine-3,4-dicarboxamide]
16 | 0.1 to 50 | > 1000 | CCCCCCCCCCCCCOC(=O)N[C@H]1CN(C(=O)c2ccc(C(=O)N3C[C@@H](C(=O)N[C@H]4C[C@@H]4c4ccccc4)[C@H](C(=O)N[C@H]4C[C@@H]4c4ccccc4)C3)cc2)C[C@@H]1OC [Compound 217, tridecyl ((3S,4S)-1-(4-((3S,4S)-3,4-bis(((1S,2R)-2-phenylcyclopropyl)carbamoyl)pyrrolidine-1-carbonyl)benzoyl)-4-methoxypyrrolidin-3-yl)carbamate]
17 | 0.1 to 50 | 0.1 to 50 | CCCCCCCNC(=O)N[C@@H](Cn1cc(-c2ccc(C(=O)N3C[C@@H](C(=O)N[C@H]4C[C@@H]4c4ccccc4)[C@H](C(=O)N[C@H]4C[C@@H]4c4ccccc4)C3)cc2)nn1)C(=O)NCCCCCC [Compound 220, (3S,4S)-1-(4-(1-((S)-2-(3-heptylureido)-3-(hexylamino)-3-oxopropyl)-1H-1,2,3-triazol-4-yl)benzoyl)-N3,N4-bis((1S,2R)-2-phenylcyclopropyl)pyrrolidine-3,4-dicarboxamide]

Source: US11951094B2, “TLR2 modulator compounds, pharmaceutical compositions and uses thereof” (Axial Therapeutics, Inc., priority 2020, dated 2024)
